Measured values published in PMC8587047, “Synthesis and Biological Evaluation of Harmirins, Novel Harmine–Coumarin Hybrids as Potential Anticancer Agents” (Molecules, 2021).
Where two headings read alike, the source gives them in different places.

Assays:
HEK293T = assay: MTT cytotoxicity assay, HEK293T (non-cancer); assay type: cell-based, human; details: Homo sapiens, HEK-293T, 72 h, read-out: IC50 Hek293T
Excerpt: (§1) We selected four different cancer cell lines for antiproliferative screening in vitro, which we believed would provide sufficient data on the anticancer potential of the prepared harmirins (hepatocellular carcinoma—HepG2, colorectal adenocarcinoma, Dukes’ type C—SW620, colorectal carcinoma—HCT116, and breast adenocarcinoma—MCF-7). Additionally, we included one non-cancer cell line (embryonic kidney—HEK293T) to evaluate harmirins’ selectivity. The commonly used anticancer drug 5-FU and harmine were used as positive controls. Pre-screening was performed using 50 µM of the tested compound. Only compounds that led to more than 50% reduction in mitochondrial metabolic activity at 50 µM concentration were selected for further analysis. The selectivity index (SI) for each harmirin was calculated as a fractional ratio between the IC50 values for HEK293T and the cancer cell line MCF-7 or HCT116 since these two cell lines were the most susceptible to harmirins.
(§2) The experiments were carried out on five human cell lines purchased from American Type Culture Collection (ATCC, PO BOX 1549, manassas, VA 20108, USA): HepG2 (hepatocellular carcinoma; ATCC® HB-8065™), SW620 (colorectal adenocarcinoma; ATCC® CCL-227™), HCT116 (colorectal carcinoma ATCC® CCL-247™), MCF-7 (breast adenocarcinoma, ATCC® HTB-22™), and HEK293T (embryonic kidney cells; ATCC® CRL-3216™). All cell lines were cultured as monolayers and maintained in Dulbecco’s modified Eagle medium (DMEM) (Capricorn Scientific, USA), supplemented with 10% fetal bovine serum (FBS) (Capricorn Scientific, USA), 100 U/mL penicillin, and 100 µg/mL streptomycin (Capricorn Scientific, USA) in a humidified atmosphere with 5% CO2 at 37 °C. Cells were seeded in 96-well plates (Corning, Durham, NC, USA) at 5000–7000 cells per well (depending on the cell doubling time of a specific cell line) in 0.1 mL media and cultured for 24 h. The next day, the medium was aspirated, and cells were treated for 72 h. Only the compounds that led to more than a 50% reduction in mitochondrial metabolic activity at a concentration of 50 µM were selected for further analysis. The following concentrations of selected compounds were used: 25, 10, 5, and 1 µM. Working dilutions were freshly prepared on the day of the testing. A fresh growth medium was added to untreated control cells, which were defined as 100% viable. DMSO (0.13%) in DMEM was considered a negative control. 5-Fluorouracil (5-FU) and harmine were used as positive controls. At the end of treatment, media was removed, and cells were incubated for 1 h with 0.5 mg/mL MTT (Abcam, Cambridge, MA, USA) dissolved in serum-deprived DMEM. The absorbance was directly proportional to cell viability. The MTT-containing media was then removed, and 0.1 mL isopropanol was added per well to lyse cells and dissolve formazan. The optical density was measured at 570 nm using a microplate reader (VICTOR3, PerkinElmer). Each test point was performed in triplicate. The IC50 values (concentration required to decrease viability by 50%) were calculated by using nonlinear regression on the sigmoidal dose–response plots and are expressed as mean ± SD.

SW620 = assay: MTT cytotoxicity assay, SW620; assay type: cell-based; details: Homo sapiens, read-out: IC50 SW620
Excerpt: as §1, §2

MCF-7 cells = assay: Cell cycle analysis by flow cytometry (PI); assay type: cell-based, human; details: harmine 20 µM
Experimental: To gain further insight into the potential mechanism of activity of 12b, and to examine whether and how the cell growth inhibition was associated with cell cycle regulation, we assessed its influence on the cell cycle of MCF-7 cells, 24 and 48 h after the treatment and compared it with the influence of the reference compound harmine (Figure 4).
MCF-7 cells were seeded onto 6-well plates (3 × 10^5 cells per well). After 24 h, 12b was added at 10 µM concentration and harmine at 20 µM concentration. After 24 h or 48 h, the attached cells were trypsinized, combined with floating cells, washed with phosphate buffer saline (PBS), fixed with 70% ethanol, and stored at −20 °C. Immediately before analysis, the cells were washed with PBS and stained with 50 μg/mL of propidium iodide (PI) with the addition of 0.1 μg/μL of RNAse A. The stained cells were then analyzed by BD FACScalibur flow cytometer (20,000 counts were measured). The percentage of cells in each cell cycle phase was determined using FlowJo software (TreeStar Inc., USA). The tests were performed in duplicate and repeated in three separate experiments.

HCT116 = assay: MTT cytotoxicity assay, HCT116; assay type: cell-based, human; details: for IC50: Homo sapiens, read-out: IC50 HCT116; for SI (HCT116): ratio IC50 HEK293T / IC50 HCT116
Excerpt: as §1, §2

MCF-7 = assay: MTT cytotoxicity assay, MCF-7; assay type: cell-based, human; details: for IC50: Homo sapiens, read-out: IC50 MCF-7; for SI (MCF-7): ratio IC50 HEK293T / IC50 MCF-7
Excerpt: as §1, §2

HepG2 = assay: MTT cytotoxicity assay, HepG2; assay type: cell-based; details: Homo sapiens, read-out: IC50 HepG2
Excerpt: as §1, §2

HGC-27 = system: HGC-27; set-up: method as in PMID 26657602; details: read-out: IC50 against HGC-27; cited from earlier work
HT-29 = system: HT-29; set-up: method as in PMID 26657602; details: read-out: IC50 against HT-29; cited from earlier work
HeLa = system: HeLa; set-up: method as in doi:10.1002/slct.201601020; details: read-out: GI50 against HeLa; cited from earlier work
[1] = 12b 10 µM, after 24 h (12b: persisted after 48 h)
[2] = MTT, mean ± SD, non-cancer cell line

With `COc1ccc2c(c1)[nH]c1c(C)nccc12` [HAR, harmine] the IC50 (HEK293T) was 12.6 ± 0.8 µM, the IC50 (SW620; SW-620, 72 h) was 4.7 ± 0.6 µM and the “accumulation of cells in the subG1 phase (apoptotic cells)” value (MCF-7 cells; 12b 10 µM, 48 h, data not shown) was ≤ 15%. For the same compound, the “effect on G1 phase of cell cycle” value (MCF-7 cells; [1]) was “G1 delay”, the “effect on percentage of cells in S phase” value (MCF-7 cells; [1]) was “reduction in cells in the S phase” and the “effect on G2/M phase of cell cycle” value (MCF-7 cells; after 48 h) was “additional accumulation of cells in the G2/M phase”. For the same compound, the IC50 (HCT116; HCT-116, 72 h) was 4 ± 0.8 µM, the “SI (HCT116)” value (HCT116) was 3.2 and the IC50 (MCF-7; MCF7, 72 h) was 13.5 ± 1.1 µM. The “SI (MCF-7)” value (MCF-7) was 0.9 and the IC50 (HepG2; HepG2, 72 h) was 18.7 ± 0.8 µM.
In the case of `COc1cc(-c2nc(Cn3cc(CN4C(=O)c5ccc(C)cc5C4=O)nn3)cc3c2[nH]c2ccccc23)cc(OC)c1OC` [β-carboline–triazole hybrid], the IC50 (HGC-27) is listed as 5.44 µM and the IC50 (HT-29) is listed as 3.67 µM.
In the case of `COc1ccc2c3ccnc(C)c3n(Cc3cn(-c4cc(=O)oc5ccc(C)cc45)nn3)c2c1` [13b, 4-(4-((7-Methoxy-1-methyl-9H-pyrido[3,4-b]indol-9-yl)methyl)-1H-1,2,3-triazol-1-yl)-6-methyl-2H-chromen-2-one], the melting point is reported as 253 to 255 °C (dec.), the IC50 (HEK293T; [2]) is reported as > 50 µM and the IC50 (SW620; SW-620, MTT, 72 h, mean ± SD) is reported as > 50 µM. The IC50 (HCT116; HCT-116, MTT, 72 h, mean ± SD) was > 50 µM, the “SI (HCT116)” value (HCT116) was >1 and the IC50 (MCF-7; MCF7, MTT, 72 h, mean ± SD) was > 50 µM. For the same compound, the “SI (MCF-7)” value (MCF-7) was >1 and the IC50 (HepG2; HepG2, MTT, 72 h, mean ± SD) was > 50 µM.
In the case of `Cc1nccc2c1[nH]c1ccc(OCc3cn(-c4cc(=O)oc5ccccc45)nn3)cc12` [11a, 4-(4-(((1-Methyl-9H-pyrido[3,4-b]indol-6-yl)oxy)methyl)-1H-1,2,3-triazol-1-yl)-2H-chromen-2-one], the melting point is reported as 235.5 to 238 °C (dec.), the IC50 (HEK293T; [2]) is reported as 6.4 ± 0.2 µM and the IC50 (SW620; SW-620, MTT, 72 h, mean ± SD) is reported as 8.4 ± 0.3 µM. For the same compound, the IC50 (HCT116; HCT-116, MTT, 72 h, mean ± SD) was 3.3 ± 0.4 µM, the “SI (HCT116)” value (HCT116) was 2 and the IC50 (MCF-7; MCF7, MTT, 72 h, mean ± SD) was 2.2 ± 0.2 µM. The “activity against MCF-7, fold stronger than 5-FU” value (MCF-7; compared with 5-FU IC50) was 9–13 fold, the “activity against MCF-7, fold higher than harmine” value (MCF-7; compared with harmine IC50) was 5–7 fold and the “SI (MCF-7)” value (MCF-7) was 3. The IC50 (HepG2; HepG2, MTT, 72 h, mean ± SD) was 6.4 ± 0.2 µM.
In the case of `Cc1nc(Cn2cc(COc3cc(=O)oc4ccccc34)nn2)cc2c1[nH]c1ccccc12` [5a, 4-((1-((1-Methyl-9H-pyrido[3,4-b]indol-3-yl)methyl)-1H-1,2,3-triazol-4-yl)methoxy)-2H-chromen-2-one], the melting point is reported as 149.5 to 153.5 °C (dec.), the IC50 (HEK293T; [2]) is reported as 6.5 ± 1.6 µM and the IC50 (SW620; SW-620, MTT, 72 h, mean ± SD) is reported as > 50 µM. The IC50 (HCT116; HCT-116, MTT, 72 h, mean ± SD) was > 50 µM, the “SI (HCT116)” value (HCT116) was <0.1 and the IC50 (MCF-7; MCF7, MTT, 72 h, mean ± SD) was > 50 µM. The “SI (MCF-7)” value (MCF-7) was <0.1 and the IC50 (HepG2; HepG2, MTT, 72 h, mean ± SD) was 17.8 ± 1.8 µM.
In the case of `Cc1nc(Cn2cc(COc3cc(=O)oc4ccc(F)cc34)nn2)cc2c1[nH]c1ccccc12` [5d, 6-Fluoro-4-((1-((1-methyl-9H-pyrido[3,4-b]indol-3-yl)methyl)-1H-1,2,3-triazol-4-yl)methoxy)-2H-chromen-2-one], the melting point is reported as 259 to 261.5 °C (dec.), the IC50 (HEK293T; [2]) is reported as 7 ± 1.6 µM and the IC50 (SW620; SW-620, MTT, 72 h, mean ± SD) is reported as > 50 µM. For the same compound, the IC50 (HCT116; HCT-116, MTT, 72 h, mean ± SD) was > 50 µM, the “SI (HCT116)” value (HCT116) was <0.1 and the “SI (MCF-7)” value (MCF-7) was <0.1. For the same compound, the IC50 (HepG2; HepG2, MTT, 72 h, mean ± SD) was > 50 µM.
For `O=c1cc(-c2nccc3c2[nH]c2ccccc23)c2cc(Cl)ccc2o1` [coumarin–β-carboline hybrid], the GI50 (HeLa) is given as 67.5 µM.
In the case of `Cc1nccc2c1[nH]c1cc(OCc3cn(-c4cc(=O)oc5ccc(F)cc45)nn3)ccc12` [12d, 6-Fluoro-4-(4-(((1-methyl-9H-pyrido[3,4-b]indol-7-yl)oxy)methyl)-1H-1,2,3-triazol-1-yl)-2H-chromen-2-one], the melting point is reported as 249 to 251 °C (dec.), the IC50 (HEK293T; [2]) is reported as > 50 µM and the IC50 (SW620; SW-620, MTT, 72 h, mean ± SD) is reported as > 50 µM. For the same compound, the IC50 (HCT116; HCT-116, MTT, 72 h, mean ± SD) was > 50 µM, the “SI (HCT116)” value (HCT116) was >1 and the IC50 (MCF-7; MCF7, MTT, 72 h, mean ± SD) was > 50 µM. The “SI (MCF-7)” value (MCF-7) was >1 and the IC50 (HepG2; HepG2, MTT, 72 h, mean ± SD) was > 50 µM.
